Patent US20250018046A1, “COMPOUNDS FOR TARGETING DEGRADATION OF IRAK4 PROTEINS” (BIOGEN MA INC, priority 2021, published 2025)

Molecular target: T1, IRAK4 (Homo sapiens, UniProt Q9NWZ3)
T1 construct: knocking-in a HiBiT fusion tag into the C-terminal of the IRAK4 gene in 293T cells; host or cells: 293T cells, knock-in of HiBiT at the endogenous IRAK4 locus
T1 sequence (Q9NWZ3 1-460): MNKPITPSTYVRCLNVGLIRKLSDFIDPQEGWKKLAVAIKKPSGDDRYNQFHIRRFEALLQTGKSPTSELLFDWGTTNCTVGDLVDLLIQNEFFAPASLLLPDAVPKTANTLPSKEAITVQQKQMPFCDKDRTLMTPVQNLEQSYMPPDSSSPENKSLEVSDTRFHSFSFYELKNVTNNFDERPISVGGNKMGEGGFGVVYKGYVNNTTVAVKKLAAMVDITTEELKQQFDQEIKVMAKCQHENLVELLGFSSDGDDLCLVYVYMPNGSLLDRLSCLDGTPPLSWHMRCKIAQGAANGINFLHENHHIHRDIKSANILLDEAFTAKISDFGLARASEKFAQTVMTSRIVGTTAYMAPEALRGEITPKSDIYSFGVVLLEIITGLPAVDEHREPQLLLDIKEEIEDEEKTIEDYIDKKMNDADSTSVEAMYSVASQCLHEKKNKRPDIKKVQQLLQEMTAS
Assay: IRAK4 degradation assay using the HiBiT Method
Format: cell-based
Conditions: 293T cells expressing HiBiT-tagged IRAK4; 6-hour incubation; Nano-Glo HiBiT Lytic Assay luminescence
Method: Selected compounds were tested in an IRAK4 degradation assay using the HiBiT Method.
Phenol red-free Dulbecco's modified Eagle medium (DMEM) and fetal bovine serum (FBS) were purchased from Gibco (Grand Island, NY, USA). The Nano-Glo© HiBiT Lytic Assay System was purchased from Promega (Madison, WI, USA). Cell culture flasks and 384-well microplates were acquired from VWR (Radnor, PA, USA). The 293T cell line was engineered by knocking-in a HiBiT fusion tag into the C-terminal of the IRAK4 gene in 293T cells (Synthego, Redwood City, CA, USA).
IRAK4 degradation was measured via the quantification of luminescent signals using the Nano-Glo© HiBiT Lytic Assay kit. Test compounds were added to 384-well plates in duplicate using an 11-point half-log dilution series, with the highest dose set at 10 mM. 293T cells expressing HiBiT-tagged IRAK4 were then added into 384-well plates at a cell density of 10,000 cells per well. The plates were kept at 37° C. with 5% CO2 for 6 hours. Cells that were treated only with DMSO served as the negative control; wells that contained only assay media served as the background control. After the 6-hour incubation, Nano-Glo® HiBiT Lytic Assay reagents were added to the cells. Luminescence was acquired using an EnVision® Multilabel Reader (PerkinElmer, Santa Clara, CA, USA).

**Q.** CC(C)Oc1cc2nc(C3CCN(CCN4CCC(c5ccc(NC6CCC(=O)NC6=O)cc5)CC4)CC3)cn2cc1NC(=O)c1cccc(C(F)(F)F)n1 (stereo not drawn) [Example 66, N-[2-[1-[2-[4-[4-[(2,6-dioxo-3-piperidyl)amino]phenyl]-1-piperidyl]ethyl]-4-piperidyl]-7-isopropoxy-imidazo[1,2-a]pyridin-6-yl]-6-(trifluoromethyl)pyridine-2-carboxamide] was tested. Which DC50 did it give?
**A.** 100 to 500 nM

**Q.** With Cc1cc(N2CCN(C(=O)CN3CCC(c4cn5cc(NC(=O)c6cccc(C(F)(F)F)n6)c(OC(C)C)cc5n4)CC3)CC2)ccc1NC1CCC(=O)NC1=O (stereo not drawn) [Example 85, N-[2-[1-[2-[4-[4-[(2,6-dioxo-3-piperidyl)amino]-3-methyl-phenyl]piperazin-1-yl]-2-oxo-ethyl]-4-piperidyl]-7-isopropoxy-imidazo[1,2-a]pyridin-6-yl]-6-(trifluoromethyl) pyridine-2-carboxamide] as the molecule, how does the DC50 read?
**A.** 100 to 500 nM

**Q.** CC(C)Oc1cn2cc(C3CCN(CC(=O)N4CCC(c5ccc(NC6CCC(=O)NC6=O)cc5)CC4)CC3)nc2cc1NC(=O)c1cccc(C(F)(F)F)n1 (single isomer, unassigned) [Example 15, N-[2-[1-[2-[4-[4-[[2,6-dioxo-3-piperidyl]amino]phenyl]-1-piperidyl]-2-oxo-ethyl]-4-piperidyl]-6-isopropoxy-imidazo[1,2-a]pyridin-7-yl]-6-(trifluoromethyl)pyridine-2-carboxamide] was tested. Which DC50 did it give?
**A.** 10 to 100 nM

**Q.** Which DC50 does the source give for CC(C)Oc1cc2nc(C3CCC(CN4CCC(c5ccc(C6CCC(=O)NC6=O)cc5)CC4)CC3)cn2cc1NC(=O)c1cccc(C(F)(F)F)n1 (stereo not drawn) [Example 35, N-[2-[4-[[4-[4-(2,6-dioxo-3-piperidyl)phenyl]-1-piperidyl]methyl]cyclohexyl]-7-isopropoxy-imidazo[1,2-a]pyridin-6-yl]-6-(trifluoromethyl)pyridine-2-carboxamide] here?
**A.** 100 to 500 nM

**Q.** Which DC50 does the source give for CC(C)Oc1cc2nc(C3CCN(CCCCc4ccc(NC5CCC(=O)NC5=O)cc4)CC3)cn2cc1NC(=O)c1cccc(C(F)(F)F)n1 (stereo not drawn) [Example 69, N-[2-[1-[4-[4-[(2,6-dioxo-3-piperidyl)amino]phenyl]butyl]-4-piperidyl]-7-isopropoxy-imidazo[1,2-a]pyridin-6-yl]-6-(trifluoromethyl)pyridine-2-carboxamide] here?
**A.** 100 to 500 nM

**Q.** For CC(C)Oc1cc2nc(C3CCN(CC(=O)N4CCN(c5ccc(NC6CCC(=O)NC6=O)cc5)CC4)CC3)cn2cc1NC(=O)c1cccc(C(F)(F)F)n1 (stereo not drawn) [Example 27, N-[2-[1-[2-[4-[4-[(2,6-dioxo-3-piperidyl)amino]phenyl]piperazin-1-yl]-2-oxo-ethyl]-4-piperidyl]-7-isopropoxy-imidazo[1,2-a]pyridin-6-yl]-6-(trifluoromethyl)pyridine-2-carboxamide], which DC50 is on record?
**A.** 100 to 500 nM

**Q.** For CC(C)Oc1cc2nc(C3CCN(CC(=O)N4CCC(c5ccc(NC6CCC(=O)NC6=O)cc5F)CC4)CC3)cn2cc1NC(=O)c1cccc(C(F)(F)F)n1 (stereo not drawn) [Example 24, N-[2-[1-[2-[4-[4-[(2,6-dioxo-3-piperidyl)amino]-2-fluoro-phenyl]-1-piperidyl]-2-oxo-ethyl]-4-piperidyl]-7-isopropoxy-imidazo[1,2-a]pyridin-6-yl]-6-(trifluoromethyl)pyridine-2-carboxamide], which DC50 is on record?
**A.** 10 to 100 nM

**Q.** CC(C)Oc1cc2nc(C3CCN(CC(=O)N4CCC(Oc5ccc(NC6CCC(=O)NC6=O)cc5)CC4)CC3)cn2cc1NC(=O)c1cccc(C(F)(F)F)n1 (stereo not drawn) [Example 86, N-[2-[1-[2-[4-[4-[(2,6-dioxo-3-piperidyl)amino]phenoxy]-1-piperidyl]-2-oxo-ethyl]-4-piperidyl]-7-isopropoxy-imidazo[1,2-a]pyridin-6-yl]-6-(trifluoromethyl)pyridine-2-carboxamide] was tested. Which DC50 did it give?
**A.** 100 to 500 nM

**Q.** How did the DC50 turn out when CC(C)Oc1cc2nc(CCCNC(=O)CN3CCC(c4ccc(NC5CCC(=O)NC5=O)cc4)CC3)cn2cc1NC(=O)c1cccc(C(F)(F)F)n1 (stereo not drawn) [Example 71, N-[2-[3-[[2-[4-[4-[(2,6-dioxo-3-piperidyl)amino]phenyl]-1-piperidyl]acetyl]amino]propyl]-7-isopropoxy-imidazo[1,2-a]pyridin-6-yl]-6-(trifluoromethyl)pyridine-2-carboxamide] was run?
**A.** 100 to 500 nM

**Q.** How did the DC50 turn out when CC(C)Oc1cc2nc(C3CCN(CC(=O)N4CCC(c5ccc(NC6CCC(=O)NC6=O)cc5)CC4)CC3)cn2cc1NC(=O)c1cccc(C(F)(F)F)n1 (stereo not drawn) [Example 23, N-[2-[1-[2-[4-[4-[(2,6-dioxo-3-piperidyl)amino]phenyl]-1-piperidyl]-2-oxo-ethyl]-4-piperidyl]-7-isopropoxy-imidazo[1,2-a]pyridin-6-yl]-6-(trifluoromethyl)pyridine-2-carboxamide] was run?
**A.** 10 to 100 nM

**Q.** With CC(C)Oc1cc2nc(C3CCN(CC(=O)N4CCN(c5cc6c(cc5F)c(N5CCC(=O)NC5=O)nn6C)CC4)CC3)cn2cc1NC(=O)c1cccc(C(F)(F)F)n1 [Example 18, N-(2-(1-(2-(4-(3-(2,4-dioxotetrahydropyrimidin-1(2H)-yl)-5-fluoro-1-methyl-1H-indazol-6-yl)piperazin-1-yl)-2-oxoethyl)piperidin-4-yl)-7-isopropoxyimidazo[1,2-a]pyridin-6-yl)-6-(trifluoromethyl)picolinamide] as the molecule, how does the DC50 read?
**A.** 10 to 100 nM

**Q.** How did the DC50 turn out when CC(C)Oc1cc2nc(C3CCN(CC(=O)N4CCN(CCc5ccc(NC6CCC(=O)NC6=O)cc5)CC4)CC3)cn2cc1NC(=O)c1cccc(C(F)(F)F)n1 (stereo not drawn) [Example 19, N-[2-[1-[2-[4-[2-[4-[(2,6-dioxo-3-piperidyl)amino]phenyl]ethyl]piperazin-1-yl]-2-oxo-ethyl]-4-piperidyl]-7-isopropoxy-imidazo[1,2-a]pyridin-6-yl]-6-(trifluoromethyl) pyridine-2-carboxamide] was run?
**A.** 10 to 100 nM

**Q.** Which DC50 does the source give for CC(C)Oc1cc2nc(C3CCN(C(=O)CN4CCC(c5ccc(NC6CCC(=O)NC6=O)cc5F)CC4)CC3)cn2cc1NC(=O)c1cccc(C(F)(F)F)n1 (stereo not drawn) [Example 7, N-[2-[1-[2-[4-[4-[(2,6-dioxo-3-piperidyl)amino]-2-fluoro-phenyl]-1-piperidyl]acetyl]-4-piperidyl]-7-isopropoxy-imidazo[1,2-a]pyridin-6-yl]-6-(trifluoromethyl)pyridine-2-carboxamide] here?
**A.** 100 to 500 nM

**Q.** For CC(C)Oc1cc2nc(C3CCN(CC(=O)N4CCC(c5ccc(NC6CCC(=O)NC6=O)cn5)CC4)CC3)cn2cc1NC(=O)c1cccc(C(F)(F)F)n1 (stereo not drawn) [Example 11, N-[2-[1-[2-[4-[5-[(2,6-dioxo-3-piperidyl)amino]-2-pyridyl]-1-piperidyl]-2-oxo-ethyl]-4-piperidyl]-7-isopropoxy-imidazo[1,2-a]pyridin-6-yl]-6-(trifluoromethyl)pyridine-2-carboxamide], which DC50 is on record?
**A.** 100 to 500 nM

**Q.** With CC(C)Oc1cc2nn(C3CCN(C(=O)CN4CCC(c5ccc(NC6CCC(=O)NC6=O)cc5F)CC4)CC3)cc2cc1NC(=O)c1cccc(C(F)(F)F)n1 (stereo not drawn) [Example 52, N-(2-(1-(2-(4-(4-((2,6-dioxopiperidin-3-yl)amino)-2-fluorophenyl)piperidin-1-yl)acetyl)piperidin-4-yl)-6-isopropoxy-2H-indazol-5-yl)-6-(trifluoromethyl)picolinamide] as the molecule, how does the DC50 read?
**A.** 10 to 100 nM

**Q.** How did the DC50 turn out when CC(C)Oc1cc2nc(C3CCN(CC(=O)N4CCC(c5ccc(NC6CCC(=O)NC6=O)cc5)CC4)CC3)cn2cc1NC(=O)c1ccn(C)n1 (stereo not drawn) [Example 60, N-[2-[1-[2-[4-[4-[(2,6-dioxo-3-piperidyl)amino]phenyl]-1-piperidyl]-2-oxo-ethyl]-4-piperidyl]-7-isopropoxy-imidazo[1,2-a]pyridin-6-yl]-1-methyl-pyrazole-3-carboxamide] was run?
**A.** 10 to 100 nM

**Q.** For CC(C)Oc1cc2nc(C3CCN(CC(=O)N4CCC(c5ccc(C6(F)CCC(=O)NC6=O)cc5)CC4)CC3)cn2cc1NC(=O)c1cccc(C(F)(F)F)n1 (stereo not drawn) [Example 12, N-[2-[1-[2-[4-[4-(3-fluoro-2,6-dioxo-3-piperidyl)phenyl]-1-piperidyl]-2-oxo-ethyl]-4-piperidyl]-7-isopropoxy-imidazo[1,2-a]pyridin-6-yl]-6-(trifluoromethyl)pyridine-2-carboxamide], which DC50 is on record?
**A.** 100 to 500 nM

**Q.** How did the DC50 turn out when CC(C)Oc1cc2nc([C@H]3CC[C@H](CN4CCC(c5ccc(C6CCC(=O)NC6=O)cc5F)CC4)CC3)cn2cc1NC(=O)c1cccc(C(F)(F)F)n1 (stereo partly drawn) [Example 41, N-[2-[4-[[4-[4-(2,6-dioxo-3-piperidyl)-2-fluoro-phenyl]-1-piperidyl]methyl]cyclohexyl]-7-isopropoxy-imidazo[1,2-a]pyridin-6-yl]-6-(trifluoromethyl)pyridine-2-carboxamide] was run?
**A.** 100 to 500 nM
